# Where two headings read alike, the source gives them in different places.
# Columns and labels:
# [1] = Clinical study: safety and tolerability of oral doses of 25HC3S; assay type: in vivo, healthy male and female subjects
# Source text: The secondary objective for both Parts 1 and 2 of the study was: • To provide information on the safety and tolerability of oral doses of 25HC3S in healthy subjects
# The evaluation of safety parameters comprised analysis of adverse events, laboratory variables (hematology, clinical chemistry and urinalysis), vital signs, electrocardiograms (ECGs) and physical examination findings.
# [2] = after jet milling
# Experimental: Crystalline 25HC3S was placed in a JAM-2-2002 mill under nitrogen and milled. The materials were then placed into product containers. Jet milling was conducted at a feed rate of 300 g/hour, with a venturi pressure of 50 psi and mill pressure of 120 psi of nitrogen. The target specification was set to having a Dv (90) of less than 10 microns.
# [3] = Dynamic vapor sorption (DVS), sorption/desorption 5% to 95% RH; assay type: physicochemical
# Source text: Dynamic vapor sorption data was collected on a Surface Measurement System DVS Intrinsic instrument. The samples were not dried prior to analysis. […] Data were not corrected for the initial moisture content of the sample.
# [4] = Experimental: The aqueous solvents were water, 5% dextrose, 0.9% sodium chloride, Fasted State Simulated Intestinal Fluid (FaSSIF), Fed State Simulated Intestinal Fluid (FeSSIF) and Fasted State Simulated Gastric Fluid (FaSSGF). The organic solvents were methanol, ethanol, isopropanol and acetonitrile.
# These fluids were prepared per the instruction listed by Biorelevant (Biorelevant.com). Each buffer concentrate was diluted with water and mixed well. FaSSIF, FeSSIF, FaSSGF powder was added to each buffer and mixed to completely dissolve the powder. Buffers were stored at room temperature and used within 48 hours of preparation.
# Aliquots of each solvent were added to each sample and vortexed for about one minute until excess solid remained. Samples were placed on shaker at room temperature with 210 motion per minute shaking.
# After one day, samples were pulled and checked if excess solid was present. About 1.5 mL aliquot of each sample was centrifuged at 12000 rpm for 12 to 15 minutes. […] Aliquots of the top clear solution of each centrifuged sample in MeOH, EtOH, IPA and ACN were diluted with diluent (water:MeOH 95:5) and assayed by HPLC.
# A linear standard curve was constructed using standards with concentration between 11 μg/mL to 1.5 mg/mL as free acid forcing the curve to origin. Solubilities are reported as mg/mL free acid 25HC3S. Detection limit (LOD) of the HPLC method was calculated as 0.0007 mg/mL.
# [5] = remark: listed apart in the source
# Experimental: Four vials were prepared and stored at 2-8° C. or […] according to Table B2. The samples were scheduled initially to pull for testing at 3 weeks and 6 weeks time points.
# For appearance, each unopened vial was visually examined for color, clumping, and flowability.
# Samples were prepared by pipetting 20 mL of 100% methanol into each vial and mixing well, with sonication and vortexing to fully dissolve the samples for HPLC analysis.
# HPLC analysis was performed.
# [6] = by angle of repose
# Experimental: Angle of repose is measured as follows. Powder is poured from a funnel onto a flat surface until a cone of powder is created. The angle of repose is calculated according to the following equation:
# [formula] • Where: • h: height of the cone (mm) • r: radius of the cone (mm)
# The height of the cone was estimated with calipers.
# [7] = by compressibility index and Hausner ratio
# Experimental: Although there are some variations in the method of determining the compressibility index and Hausner ratio, the basic procedure is to measure the unsettled apparent volume, VO, and the final tapped volume, Vf, of the powder after tapping the material until no further volume changes occur. The compressibility index and the Hausner ratio are calculated as follows: […]
# Powder was carefully poured into a 5 mL glass graduated cylinder (to contain) until it was close to or at 5.0 mL. This initial volume was recorded as Vo. The graduated cylinder was tapped on a hard surface for 200 times and the volume was recorded. The cylinder was tapped 100 times more, and the final volume Vf was recorded.
# [8] = Biorelevant drug release, USP Apparatus 2, 0-30 min FaSSGF then FaSSGF + double strength FaSSIF; assay type: physicochemical; settings: at 90 minutes, biorelevant media
# Experimental: Biorelevant media as used herein is a combination of 2 different media used at different times. The first is in FaSSGF which stands for Fasted-state simulated gastric fluid and is used for 30 minutes of drug release. Afterwards, drug release is measured with addition of double strength FaSSIF which is Fasted-state simulated intestinal fluid. A skilled artisan would understand that the double strength FaSSIF is added at 30 minutes.
# As used herein, the biorelevant drug release was conducted using a USP Apparatus 2 with (1) 0-30 minutes in 450 mL FaSSGF; and (2) 30-90 minutes FaSSGF+double strength FaSSIF in a total of 900 mL of media with pH adjusted to 6.5; with a paddle speed of 75 rpm (0-75 minutes) and 250 rpm (75-90 minutes) and a vessel temperature of 37° C.
smiles,measurement,setting,value
"C[C@H](CCCC(C)(C)O)[C@H]1CCC2C3CC=C4C[C@@H](OS(=O)(=O)O)CC[C@]4(C)C3CC[C@@]21C (stereo partly drawn) [Tablet 25HC3S, [(3S,10R,13R,17R)-17-[(1R)-5-hydroxy-1,5-dimethyl-hexyl]-10,13-dimethyl-2,3,4,7,8,9,11,12,14,15,16,17-dodecahydro-1H-cyclopenta[a]phenanthren-3-yl]sulfate]","subjects reporting TEAEs, overall","[1]; 16 subjects, all TEAEs mild, not related to IMP",2 (12.5%)
same,serious or severe TEAEs or deaths,[1]; all regimens,"No serious, severe treatment-emergent adverse events (TEAEs) or deaths were reported"
same,tolerability,"[1]; choline salt IR formulations up to 50 mg fed and fasted, sodium salt PiB and choline salt PiB 12.5 mg fasted",well tolerated
same,total number of TEAEs,[1]; overall,4
C[C@H](CCCC(C)(C)O)[C@H]1CC[C@H]2[C@@H]3CC=C4C[C@@H](OS(=O)(=O)[O-])CC[C@]4(C)[C@H]3CC[C@]12C.C[N+](C)(C)CCO [Micronized 25HC3S choline],composite Dv (90),[2],4 microns
"C[C@H](CCCC(C)(C)O)[C@H]1CC[C@H]2[C@@H]3CC=C4C[C@@H](OS(=O)(=O)[O-])CC[C@]4(C)[C@H]3CC[C@]12C.[Na+] [crystalline 25HC3S sodium, Sodium [(3S,10R,13R,17R)-17-[(1R)-5-hydroxy-1,5-dimethyl-hexyl]-10,13-dimethyl-2,3,4,7,8,9,11,12,14,15,16,17-dodecahydro-1H-cyclopenta[a]phenanthren-3-yl]sulfate, reference compound]","water uptake (DVS isotherm, in words)","[3]; until about 95% relative humidity, batch containing Form I and Form II",significant water uptake
"C[C@H](CCCC(C)(C)O)[C@H]1CC[C@H]2[C@@H]3CC=C4C[C@@H](OS(=O)(=O)[O-])CC[C@]4(C)[C@H]3CC[C@]12C.C[N+](C)(C)CCO [25HC3S choline, 25-hydroxy-3β-cholesten-5-en-3-sulfate (25HC3S) choline]",weight loss on the return to 5% relative humidity,[3]; DVS desorption 95% to 5% RH,0.5%
same,Solubility in 0.9% Sodium Chloride,[4],low solubility
same,Solubility in 5% Dextrose,[4],0.093 mg/mL as Free Acid
same,Solubility in ACN,[4],0.5 mg/mL as Free Acid
same,Solubility in EtOH,[4],3.4 mg/mL as Free Acid
same,Solubility in IPA,[4],0.6 mg/mL as Free Acid
same,Solubility in MeOH,[4],17.5 mg/mL as Free Acid
same,Solubility in Water,[4],0.107 mg/mL as Free Acid
same,% Impurities 25-HC (25-Hydroxy-Cholesterol),"[5]; 2-8° C., 3 wk",0.2%
same,% Impurities SD (Sulfate Desmosterol),"[5]; 2-8° C., 3 wk",0.4%
same,% Impurities Total,"[5]; 2-8° C., 3 wk",1.0%
same,Appearance,"[5]; 2-8° C., 3 wk","White, free flowing powder with clumping"
same,Assay,"[5]; 2-8° C., 3 wk",101.6 % w/w
same,% Impurities 25-HC (25-Hydroxy-Cholesterol),"[5]; 2-8° C., 5 wk",0.2%
same,% Impurities SD (Sulfate Desmosterol),"[5]; 2-8° C., 5 wk",0.3%
same,% Impurities Total,"[5]; 2-8° C., 5 wk",0.9%
same,Appearance,"[5]; 2-8° C., 5 wk","White, free flowing powder with clumping"
same,Assay,"[5]; 2-8° C., 5 wk",108.1 % w/w
same,% Impurities 25-HC (25-Hydroxy-Cholesterol),"[5]; 80° C., 3 wk",0.4%
same,% Impurities SD (Sulfate Desmosterol),"[5]; 80° C., 3 wk",0.4%
same,% Impurities Total,"[5]; 80° C., 3 wk",1.2%
same,% Recovery of 2-8° C./3 wk VS 80° C../3 wk,"[5]; 80° C., 3 wk",100.8%
same,Appearance,"[5]; 80° C., 3 wk","White, free flowing powder with clumping"
same,Assay,"[5]; 80° C., 3 wk",102.4 % w/w
same,% Impurities 25-HC (25-Hydroxy-Cholesterol),"[5]; 80° C., 5 wk",0.2%
same,% Impurities SD (Sulfate Desmosterol),"[5]; 80° C., 5 wk",0.8%
same,% Impurities Total,"[5]; 80° C., 5 wk",2.2%
same,% Recovery of 2-8º C./5 wk VS 80° C./5 wk,"[5]; 80° C., 5 wk",97.3%
same,Appearance,"[5]; 80° C., 5 wk","White, free flowing powder with clumping"
same,Assay,"[5]; 80° C., 5 wk",105.2 % w/w
same,Flow Property per USP<1174> Powder Flow,[6],Good (31-35)
same,Scale of Flowability per USP<1174> (Flow Character),[7],"Very, very poor (>38)"
same,drug release,[8],~ 10%

# Reference: patent US20260207628A1, “25-HYDROXY-CHOLEST-5-EN-3-SULFATE CHOLINE, FORMULATIONS THEREOF AND METHODS FOR PREPARING, AND USES OF SAME” (Durect Corporation, priority 2022, published 2026)
